Earlier results on 2 substances are cited in patent US20260057961A1, “CHROMOSOME 9P24 LOSS AND GAIN PREDICTS RESISTANCE AND BENEFIT OF IMMUNE CHECKPOINT INHIBITORS” (THE REGENTS OF THE UNIVERSITY OF CALIFORNIA, priority 2022, published 2026).

Data set [1] has as its system HNSC. As to conditions: recurrent/metastatic setting after platinum failure.
Data set [2] concerns HNSC.

For nivolumab, the “overall survival compared to chemotherapy or cetuximab” value in the data set with HNSC [1] is listed as “improved overall survival”.

Take pembrolizumab: the “overall survival compared to chemotherapy or cetuximab” value in the data set on HNSC [1] is reported as “improved overall survival”. Moreover, in the data set on HNSC [2] (pembrolizumab alone, approximately 20% of patients, with no PD-L1 expression), the “overall survival compared to chemotherapy” value was “worse”. In the data set with HNSC [2] (pembrolizumab monotherapy, patients whose tumors expressed PD-L1 protein by immunohistochemistry), the “survival versus platinum/5FU/cetuximab” value is given as “improved survival”.
